Assay results: ChEMBL document CHEMBL4138088, “Novel 1-(7-ethoxy-1-benzofuran-2-yl) substituted chalcone derivatives: Synthesis, characterization and anticancer activity” (Eur J Med Chem, 2017)
Blank lines part the entries; values can stand above or below the molecule they belong to. Active and inactive are the calls of the source. No cut-off for these calls is given here.

Columns and labels:
[1] = tested on: HCT-116; assay: Antiproliferative activity against human HCT116 cells after 48 hrs by MTT assay; format: functional, cell-based; conditions: HCT-116, 48 h
[2] = tested on: CT26.WT; assay: Antiproliferative activity against mouse CT26.WT cells after 48 hrs by MTT assay; format: functional, cell-based
[3] = tested on: SW-620; assay: Antiproliferative activity against human SW620 cells after 48 hrs by MTT assay; format: functional, cell-based; conditions: SW-620, 48 h
[4] = tested on: A549; assay: Growth inhibition of human A549 cells at 20 uM after 72 hrs by SRB assay; format: functional, cell-based
[5] = tested on: PC-3; assay: Induction of mitochondrial membrane depolarization in human PC3 cells assessed as live cells at 20 uM after 48 hrs by 7-AAD/Muse mito-potential dye-based assay (reference value: 83.15%); format: functional
[6] = tested on: MCF7; assay: Induction of mitochondrial membrane depolarization in human MCF7 cells assessed as live cells at 20 uM after 48 hrs by 7-AAD/Muse mito-potential dye-based assay (reference value: 78.59%); format: functional
[7] = tested on: A549; assay: Induction of ROS generation in human A549 cells assessed as accumulation at M1 phase at 20 uM after 48 hrs flow cytometry (reference value: 97.60%); format: functional
[8] = tested on: MCF7; assay: Induction of apoptosis in human MCF7 cells assessed as viable cells at 20 uM after 48 hrs by caspase 3/7 staining-based flow cytometry (reference value: 85.30%); format: functional; conditions: MCF7, 48 h, read-out: Activity
[9] = tested on: A549; assay: Growth inhibition of human A549 cells at 20 uM after 72 hrs by ATP bioluminescence assay; format: functional, cell-based
[10] = tested on: MCF7; assay: Induction of apoptosis in human MCF7 cells assessed as late apoptotic cells at 20 uM after 48 hrs by annexin V-propidium iodide staining-based flow cytometry (reference value: 7.25%); format: functional
[11] = tested on: MCF7; assay: Induction of apoptosis in human MCF7 cells assessed as early apoptotic cells at 20 uM after 48 hrs by annexin V-propidium iodide staining-based flow cytometry (reference value: 2.15%); format: functional
[12] = tested on: PC-3; assay: Induction of mitochondrial membrane depolarization in human PC3 cells assessed as depolarized dead cells at 20 uM after 48 hrs by 7-AAD/Muse mito-potential dye-based assay (reference value: 2.05%); format: functional
[13] = tested on: PC-3; assay: Induction of apoptosis in human PC3 cells assessed as late apoptotic cells at 20 uM after 48 hrs by caspase 3/7 staining-based flow cytometry (reference value: 1.90%); format: functional
[14] = tested on: A549; assay: Induction of apoptosis in human A549 cells assessed as early apoptotic cells at 20 uM after 48 hrs by annexin V-propidium iodide staining-based flow cytometry (reference value: 3.75%); format: functional
[15] = tested on: PC-3; assay: Induction of apoptosis in human PC3 cells assessed as necrotic cells at 20 uM after 48 hrs by caspase 3/7 staining-based flow cytometry (reference value: 3.05%); format: functional
[16] = tested on: A549; assay: Induction of ROS generation in human A549 cells assessed as accumulation at M2 phase at 20 uM after 48 hrs flow cytometry (reference value: 1.07%); format: functional
[17] = tested on: A549; assay: Induction of apoptosis in human A549 cells assessed as necrotic cells at 20 uM after 48 hrs by annexin V-propidium iodide staining-based flow cytometry (reference value: 1.4%); format: functional
[18] = tested on: MCF7; assay: Induction of ROS generation in human MCF7 cells assessed as accumulation at M1 phase at 20 uM after 48 hrs flow cytometry (reference value: 97.67%); format: functional
[19] = tested on: PC-3; assay: Induction of ROS generation in human PC3 cells assessed as accumulation at M2 phase at 20 uM after 48 hrs flow cytometry (reference value: 0.33%); format: functional
[20] = tested on: MCF7; assay: Induction of morphological changes in human MCF7 cells assessed as reduction in cell density at 20 uM after 72 hrs by phase contrast microscopic method; format: functional, cell-based
[21] = tested on: A549; assay: Induction of apoptosis in human A549 cells assessed as viable cells at 20 uM after 48 hrs by caspase 3/7 staining-based flow cytometry (reference value: 94.25%); format: functional; conditions: A549, 48 h, read-out: Activity
[22] = tested on: MCF7; assay: Induction of apoptosis in human MCF7 cells assessed as necrotic cells at 20 uM after 48 hrs by annexin V-propidium iodide staining-based flow cytometry (reference value: 0.35%); format: functional
[23] = tested on: A549; assay: Induction of apoptosis in human A549 cells assessed as necrotic cells at 20 uM after 48 hrs by caspase 3/7 staining-based flow cytometry (reference value: 1.50%); format: functional
[24] = tested on: A549; assay: Induction of mitochondrial membrane depolarization in human A549 cells assessed as depolarized live cells at 20 uM after 48 hrs by 7-AAD/Muse mito-potential dye-based assay (reference value: 3.84%); format: functional
[25] = tested on: A549; assay: Induction of mitochondrial membrane depolarization in human A549 cells assessed as depolarized dead cells at 20 uM after 48 hrs by 7-AAD/Muse mito-potential dye-based assay (reference value: 7.88%); format: functional
[26] = tested on: A549; assay: Induction of apoptosis in human A549 cells assessed as early apoptotic cells at 20 uM after 48 hrs by caspase 3/7 staining-based flow cytometry (reference value: 1.70%); format: functional
[27] = tested on: PC-3; assay: Induction of mitochondrial membrane depolarization in human PC3 cells assessed as dead cells at 20 uM after 48 hrs by 7-AAD/Muse mito-potential dye-based assay (reference value: 2.20%); format: functional
[28] = tested on: A549; assay: Induction of apoptosis in human A549 cells assessed as viable cells at 20 uM after 48 hrs by annexin V-propidium iodide staining-based flow cytometry (reference value: 91.80%); format: functional; conditions: A549, 48 h, read-out: Activity
[29] = tested on: MCF7; assay: Induction of mitochondrial membrane depolarization in human MCF7 cells assessed as depolarized live cells at 20 uM after 48 hrs by 7-AAD/Muse mito-potential dye-based assay (reference value: 6.67%); format: functional
[30] = tested on: PC-3; assay: Induction of ROS generation in human PC3 cells assessed as accumulation at M1 phase at 20 uM after 48 hrs flow cytometry (reference value: 99.67%); format: functional
[31] = tested on: MCF7; assay: Induction of apoptosis in human MCF7 cells assessed as necrotic cells at 20 uM after 48 hrs by caspase 3/7 staining-based flow cytometry (reference value: 1.25%); format: functional
[32] = tested on: PC-3; assay: Growth inhibition of human PC3 cells after 72 hrs by ATP bioluminescence assay; format: functional, cell-based; conditions: PC-3, 72 h
[33] = tested on: A549; assay: Growth inhibition of human A549 cells after 72 hrs by ATP bioluminescence assay; format: functional, cell-based; conditions: A549, 72 h
[34] = tested on: MCF7; assay: Growth inhibition of human MCF7 cells at 20 uM after 72 hrs by SRB assay; format: functional, cell-based
[35] = tested on: PC-3; assay: Induction of apoptosis in human PC3 cells assessed as viable cells at 20 uM after 48 hrs by caspase 3/7 staining-based flow cytometry (reference value: 94.75%); format: functional; conditions: PC-3, 48 h, read-out: Activity
[36] = tested on: PC-3; assay: Induction of apoptosis in human PC3 cells assessed as necrotic cells at 20 uM after 48 hrs by annexin V-propidium iodide staining-based flow cytometry (reference value: 2.45%); format: functional
[37] = tested on: PC-3; assay: Induction of apoptosis in human PC3 cells assessed as early apoptotic cells at 20 uM after 48 hrs by annexin V-propidium iodide staining-based flow cytometry (reference value: 1.55%); format: functional
[38] = tested on: MCF7; assay: Growth inhibition of human MCF7 cells at 20 uM after 72 hrs by ATP bioluminescence assay; format: functional, cell-based
[39] = tested on: MCF7; assay: Induction of apoptosis in human MCF7 cells assessed as viable cells at 20 uM after 48 hrs by annexin V-propidium iodide staining-based flow cytometry (reference value: 90.25%); format: functional; conditions: MCF7, 48 h, read-out: Activity
[40] = tested on: PC-3; assay: Induction of morphological changes in human PC3 cells assessed as reduction in cell density at 20 uM after 72 hrs by phase contrast microscopic method; format: functional, cell-based
[41] = tested on: A549; assay: Induction of apoptosis in human A549 cells assessed as late apoptotic cells at 20 uM after 48 hrs by caspase 3/7 staining-based flow cytometry (reference value: 2.56%); format: functional
[42] = tested on: PC-3; assay: Induction of apoptosis in human PC3 cells assessed as late apoptotic cells at 20 uM after 48 hrs by annexin V-propidium iodide staining-based flow cytometry (reference value: 1.45%); format: functional
[43] = tested on: A549; assay: Induction of morphological changes in human A549 cells assessed as reduction in cell density at 20 uM after 72 hrs by phase contrast microscopic method; format: functional, cell-based
[44] = tested on: A549; assay: Induction of apoptosis in human A549 cells assessed as late apoptotic cells at 20 uM after 48 hrs by annexin V-propidium iodide staining-based flow cytometry (reference value: 3.05%); format: functional
[45] = tested on: MCF7; assay: Induction of mitochondrial membrane depolarization in human MCF7 cells assessed as dead cells at 20 uM after 48 hrs by 7-AAD/Muse mito-potential dye-based assay (reference value: 2.30%); format: functional
[46] = tested on: PC-3; assay: Growth inhibition of human PC3 cells at 20 uM after 72 hrs by ATP bioluminescence assay; format: functional, cell-based
[47] = tested on: PC-3; assay: Induction of apoptosis in human PC3 cells assessed as viable cells at 20 uM after 48 hrs by annexin V-propidium iodide staining-based flow cytometry (reference value: 94.55%); format: functional; conditions: PC-3, 48 h, read-out: Activity
[48] = tested on: MCF7; assay: Induction of apoptosis in human MCF7 cells assessed as late apoptotic cells at 20 uM after 48 hrs by caspase 3/7 staining-based flow cytometry (reference value: 10.80%); format: functional
[49] = tested on: MCF7; assay: Growth inhibition of human MCF7 cells after 72 hrs by ATP bioluminescence assay; format: functional, cell-based; conditions: MCF7, 72 h
[50] = tested on: A549; assay: Induction of mitochondrial membrane depolarization in human A549 cells assessed as live cells at 20 uM after 48 hrs by 7-AAD/Muse mito-potential dye-based assay (reference value: 85.84%); format: functional
[51] = tested on: MCF7; assay: Induction of ROS generation in human MCF7 cells assessed as accumulation at M2 phase at 20 uM after 48 hrs flow cytometry (reference value: 2.33%); format: functional
[52] = tested on: MCF7; assay: Induction of mitochondrial membrane depolarization in human MCF7 cells assessed as depolarized dead cells at 20 uM after 48 hrs by 7-AAD/Muse mito-potential dye-based assay (reference value: 12.43%); format: functional
[53] = tested on: PC-3; assay: Induction of mitochondrial membrane depolarization in human PC3 cells assessed as depolarized live cells at 20 uM after 48 hrs by 7-AAD/Muse mito-potential dye-based assay (reference value: 12.60%); format: functional
[54] = tested on: MCF7; assay: Induction of apoptosis in human MCF7 cells assessed as early apoptotic cells at 20 uM after 48 hrs by caspase 3/7 staining-based flow cytometry (reference value: 2.65%); format: functional
[55] = tested on: PC-3; assay: Induction of apoptosis in human PC3 cells assessed as early apoptotic cells at 20 uM after 48 hrs by caspase 3/7 staining-based flow cytometry (reference value: 0.3%); format: functional
[56] = tested on: A549; assay: Induction of mitochondrial membrane depolarization in human A549 cells assessed as dead cells at 20 uM after 48 hrs by 7-AAD/Muse mito-potential dye-based assay (reference value: 2.44%); format: functional

IC50 [1]: 25.9 µM
IC50 [2]: 3.36 µM
IC50 [3]: 11.7 µM
Structure (SMILES): COc1ccccc1/C=C/C(=O)c1ccc(O)c(O)c1

Structure (SMILES): CCOc1cccc2cc(C(=O)/C=C/c3ccc(N(C)C)cc3)oc12
growth inhibition (GI) [4]: Active
Activity [5]: 31.75%
Activity [6]: 24.3%
Activity [7]: 79.33%
viability at 20 µM [8]: 13.8%
growth inhibition (GI) [9]: Active
Activity [10]: 91.7%
Activity [11]: 4.3%
Activity [12]: 18.6%
Activity [13]: 11.1%
Activity [14]: 1.8%
Activity [15]: 37.25%
Activity [16]: 20.67%
Activity [17]: 0.2%
Activity [18]: 85.13%
Activity [19]: 1.17%
Activity [20]: Active
viability at 20 µM [21]: 23.1%
Activity [22]: 0.7%
Activity [23]: 10.5%
Activity [24]: 50.57%
Activity [25]: 32.78%
Activity [26]: 7.75%
Activity [27]: 19.15%
viability at 20 µM [28]: 2.8%
Activity [29]: 7.9%
Activity [30]: 98.83%
Activity [31]: 0.26%
IC50 [32]: 10 µM
IC50 [33]: 9 µM
growth inhibition (GI) [34]: Active
viability at 20 µM [35]: 51%
Activity [36]: 6.9%
Activity [37]: 6.45%
growth inhibition (GI) [38]: Active
viability at 20 µM [39]: 3.3%
Activity [40]: Active
Activity [41]: 58.7%
Activity [42]: 59.7%
Activity [43]: Active
Activity [44]: 95.2%
Activity [45]: 54.3%
growth inhibition (GI) [46]: Active
viability at 20 µM [47]: 26.9%
Activity [48]: 41%
IC50 [49]: 2 µM
Activity [50]: 15.29%
Activity [51]: 14.87%
Activity [52]: 13.5%
Activity [53]: 30.5%
Activity [54]: 45%
Activity [55]: 0.65%
Activity [56]: 1.35%

Structure (SMILES): CCOc1cccc2cc(C(=O)/C=C/c3ccc[nH]3)oc12
growth inhibition (GI) [34]: Active
growth inhibition (GI) [38]: Active

Structure (SMILES): CCOc1cccc2cc(C(=O)/C=C/c3cccs3)oc12
growth inhibition (GI) [34]: Active
growth inhibition (GI) [38]: Active
